Assay results: patent US10851073B2, “Protein tyrosine phosphatase inhibitors and methods of use thereof” (Calico Life Sciences LLC, priority 2019, dated 2020)
Like-named read-outs stand apart in the source and are kept apart here.

Tested on: B16F10 mouse melanoma cells
Assay: B16F10 IFNγ-induced cellular growth inhibition assay
Assay type: cell-based
Conditions: B16-F10, with 0.5 ng/mL IFNγ
Protocol: Example 229: B16F10 IFNγ-Induced Cellular Growth Inhibition Assay B16F10 mouse melanoma cells (ATCC Cat^# CRL-6475, Manassas, Va.) were seeded at a density of 500 cells per well in a 384-well clear bottom plate (Corning Cat^#3765, Corning, N.Y.) in 25 μL total volume of DMEM+10% FBS (Sigma Cat^# D6429 and Sigma Cat^# F4135, St. Louis, Mo.). Cells were allowed to adhere overnight at 37° C.+5% CO2. On the following day, 12.5 μL of mouse IFNγ (RD systems Cat^#485-MI/CF, Minneapolis, Minn.) was added to half of the plate (columns 13-24) at a concentration of 2 ng/mL for a final assay concentration of 0.5 ng/mL of IFNγ. Media only (12.5 μL of DMEM+10% FBS) was added to the remainder of the plate (columns 1-12). Next, compounds resuspended in DMSO (Sigma Cat^# D2650) at 100 mM were diluted in semi-log dilutions in DMSO ranging from 100 mM to 0.001 mM and DMSO only controls were included. The compound/DMSO dilutions were further diluted 1:250 in DMEM+10% FBS, and 12.5 μL of these dilutions were added in triplicates to cells of both treatment arms (with and without IFNγ). Final compound concentrations ranged from 100 μM to 0.001 μM with a final DMSO concentration of 0.1%. Compounds were only dosed in the inner 240 wells, avoiding the outer 2-well perimeter of the plate to minim/ze edge effects. Finally, the plate was loaded into an IncuCyte® S3 Live Cell Analysis System (Essen Bioscience-Sartorius, Ann Arbor, Mich.) maintained in a 37° C.+5% CO2 incubator, allowed to equilibrate for 2 hours, and imaged every 6 hours for 5 days. Confluence over time for compound dilutions in the presence and absence of IFNγ was measured. Growth inhibition values were obtained when the “DMSO/no IFNγ” control reached confluence >95%. At these time points, for each compound the percent growth inhibition at every compound dose level was calculated relative to the “DMSO/with IFNγ” control and used to determine the IC50.

[1] = read-out: B16F10 Growth Inhibition IC50

SMILES	IC50 (read-out: B16F10 GI IC50) [µM]	IC50 [1] [µM]
N[C@H](CCC1CCCCC1)C(=O)N1CCc2cc(O)c(N3CC(=O)NS3(=O)=O)c(F)c2C1 [Compound 250, 5-{2-[(2R)-2-amino-4-cyclohexylbutanoyl]-8-fluoro-6-hydroxy-1,2,3,4-tetrahydroisoquinolin-7-yl}-1λ^6,2,5-thiadiazolidine-1,1,3-trione]	> 100	–
CC(C)OCCCN1CCc2cc(O)c(N3CC(=O)NS3(=O)=O)c(F)c2C1 [Compound 251, 5-(8-fluoro-6-hydroxy-2-{3-[(propan-2-yl)oxy]propyl}-1,2,3,4-tetrahydroisoquinolin-7-yl)-1λ^6,2,5-thiadiazolidine-1,1,3-trione]	1 to 10	–
Cn1cc(CCN2CCc3cc(O)c(N4CC(=O)NS4(=O)=O)c(F)c3C2)cn1 [Compound 252, 5-{8-fluoro-6-hydroxy-2-[2-(1-methyl-1H-pyrazol-4-yl)ethyl]-1,2,3,4-tetrahydroisoquinolin-7-yl}-1λ^6,2,5-thiadiazolidine-1,1,3-trione]	10 to 100	–
Cc1nn(CC(F)F)c(C)c1CCN1CCc2cc(O)c(N3CC(=O)NS3(=O)=O)c(F)c2C1 [Compound 253, 5-(2-{2-[1-(2,2-difluoroethyl)-3,5-dimethyl-1H-pyrazol-4-yl]ethyl}-8-fluoro-6-hydroxy-1,2,3,4-tetrahydroisoquinolin-7-yl)-1λ^6,2,5-thiadiazolidine-1,1,3-trione]	1 to 10	–
Cc1c(CCN2CCc3cc(O)c(N4CC(=O)NS4(=O)=O)c(F)c3C2)cnn1C [Compound 257, 5-{2-[2-(1,5-dimethyl-1H-pyrazol-4-yl)ethyl]-8-fluoro-6-hydroxy-1,2,3,4-tetrahydroisoquinolin-7-yl}-1λ^6,2,5-thiadiazolidine-1,1,3-trione]	1 to 10	–
O=C1CN(c2c(O)cc3c(c2F)CN(C(=O)NCC2CC2)CC3)S(=O)(=O)N1 [Compound 258, N-(cyclopropylmethyl)-8-fluoro-6-hydroxy-7-(1,1,4-trioxo-1λ^6,2,5-thiadiazolidin-2-yl)-3,4-dihydroisoquinoline-2(1H)-carboxamide]	1 to 10	–
O=C1CN(c2c(O)cc3c(c2F)CN(C(=O)NCC2CC(F)(F)C2)CC3)S(=O)(=O)N1 [Compound 262, N-[(3,3-difluorocyclobutyl)methyl]-8-fluoro-6-hydroxy-7-(1,1,4-trioxo-1λ^6,2,5-thiadiazolidin-2-yl)-3,4-dihydroisoquinoline-2(1H)-carboxamide]	10 to 100	–
CCn1nc(C)c(CCN2CCc3cc(O)c(N4CC(=O)NS4(=O)=O)c(F)c3C2)c1C [Compound 276, 5-{2-[2-(1-ethyl-3,5-dimethyl-1H-pyrazol-4-yl)ethyl]-8-fluoro-6-hydroxy-1,2,3,4-tetrahydroisoquinolin-7-yl}-1λ^6,2,5-thiadiazolidine-1,1,3-trione]	1 to 10	–
O=C1CN(c2c(O)cc3c(c2F)CN(CCCC2CCCCC2)CC3)S(=O)(=O)N1 [Compound 286, 5-[2-(3-cyclohexylpropyl)-8-fluoro-6-hydroxy-1,2,3,4-tetrahydroisoquinolin-7-yl]-1λ^6,2,5-thiadiazolidine-1,1,3-trione]	1 to 10	–
COCCCCN1CCc2cc(O)c(N3CC(=O)NS3(=O)=O)c(F)c2C1 [Compound 293, 5-[8-fluoro-6-hydroxy-2-(4-methoxybutyl)-1,2,3,4-tetrahydroisoquinolin-7-yl]-1λ^6,2,5-thiadiazolidine-1,1,3-trione]	1 to 10	–
Cc1noc(C)c1CCN1Cc2c(cc(O)c(N3CC(=O)NS3(=O)=O)c2F)C(F)(F)C1 [Compound 306, 5-{2-[2-(3,5-dimethyl-1,2-oxazol-4-yl)ethyl]-4,4,8-trifluoro-6-hydroxy-1,2,3,4-tetrahydroisoquinolin-7-yl}-1λ^6,2,5-thiadiazolidine-1,1,3-trione]	> 100	–
CC(C)CCNc1ccc2cc(O)c(N3CC(=O)NS3(=O)=O)c(F)c2c1 [Compound V]	–	3.2
CC(C)(C)CCNc1ccc2cc(O)c(N3CC(=O)NS3(=O)=O)c(F)c2c1 [Compound W]	–	4.1
O=C1CN(c2c(O)cc3ccc(NCCC4CC4)cc3c2F)S(=O)(=O)N1 [Compound X]	–	4.1
